From US4469681A, “Method and system for the controlled release of biologically active substances to a body fluid” (The Rockefeller University, priority 1981, dated 1984)

Experiments:
Concanavalin A = Concanavalin A (Canavalia ensiformis, UniProt P02866); assay: Binding to and glucose displacement from immobilized Concanavalin A columns; set-up: species or system Jack Bean
Description: At the point indicated by the arrow, 0.2M glucose in the column buffer was begun. Fractions (2.0 ml) were collected at a flow rate of 10-15 ml/h.
Displacement of hormone was accomplished using 1.0 ml pulses of column buffer containing varying amounts of glucose. Glucose content is indicated over the appropriate arrows. Fractions (1.7 ml) were collected at a flow rate of 10-15 ml/h.

blood glucose = assay: Blood-glucose depression assay modified from the U.S. Pharmacopeia; format: in vivo; conditions: 60 minutes after injection; for Blood glucose depression: 0.1 mg protein/100 gm body weight subcutaneous after overnight fast
Source text: weight by subcutaneous injection.
injection using a Beckman Glucose Analyzer 2.

Substance: Control insulin: porcine insulin (Lilly), unmodified
- Binding to immobilized Concanavalin A (Concanavalin A; 20 mg applied to column, buffer 1 mM MgCl2, 1 mM CaCl2, 50 mM NaCl, 25 mM sodium phosphate, pH 7.4): did not bind
- Displacement from Concanavalin A binding sites by glucose (Concanavalin A; 0.2M glucose in column buffer, 1,000:1 molar excess of glucose): none was eluted by the addition of glucose
- Blood glucose depression (blood glucose; Animal A): 75 mg %
- Blood glucose depression (blood glucose; Animal B): 70 mg %
- Blood glucose depression (blood glucose; Animal C): 79 mg %
- Blood glucose depression (blood glucose; Animal D): 79 mg %
- Blood glucose depression (blood glucose; Animal E): 64 mg %
- Blood glucose depression (blood glucose; Animal F): 73 mg %
- Blood glucose depression, Mean ± S.E.M. (blood glucose; Mean of animals A-F, 0.1 mg protein/100 gm body weight subcutaneous): 73.33 ± 2.35 mg %
